Test results as given in PubChem BioAssay AID212 (DTP/NCI, 2004).
Values joined by “and” are separate entries in the source; they are usually repeats but may differ in a detail not shown here. Equal values may be shown once. Records with an inconclusive call do not appear.

Test system: BDF1 mice, colon carcinoma 38 sc, T/C %
Experiment: NCI In Vivo Anticancer Drug Screen. Data for tumor model Colon Carcinoma 38 (subcutaneous) in B6D2F1 (BDF1) mice
Settings: endpoint: median tumor weight (est.), higher = larger tumour
Outline: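 Transplantable tumor in mice; compound-treated vs vehicle-dosed controls. Measured survival or tumor size; value = T ÷ C.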

[1] = dose: 100.0 mg/kg/injection, schedule: Q07DX002 (ip), vehicle: Klucel (hydroxypropylcellulose) (HPC)
[2] = dose: 200.0 mg/kg/injection, schedule: Q07DX002 (ip), vehicle: Klucel (hydroxypropylcellulose) (HPC)
[3] = dose: 12.5 mg/kg/injection, schedule: Q07DX002 (ip), vehicle: saline with Tween-80
[4] = dose: 50.0 mg/kg/injection, schedule: Q07DX002 (ip), vehicle: saline with Tween-80
[5] = dose: 100.0 mg/kg/injection, schedule: Q07DX002 (ip), vehicle: saline with Tween-80

## ClC(Cl)=C(Cl)Cl
dose: 28.0 mg/kg/injection, schedule: Q07DX002 (ip), vehicle: saline with Tween-80
  T/C: 88 % of control and 103 % of control
dose: 50.0 mg/kg/injection, schedule: Q07DX002 (ip), vehicle: other
  T/C: 79 % of control
dose: 56.0 mg/kg/injection, schedule: Q07DX002 (ip), vehicle: saline with Tween-80
  T/C: 79 % of control and 100 % of control
dose: 100.0 mg/kg/injection, schedule: Q07DX002 (ip), vehicle: other
  T/C: 109 % of control and 112 % of control
dose: 112.0 mg/kg/injection, schedule: Q07DX002 (ip), vehicle: saline with Tween-80
  T/C: 52 % of control
dose: 400.0 mg/kg/injection, schedule: Q07DX002 (ip), vehicle: other
  T/C: 91 % of control
dose: 800.0 mg/kg/injection, schedule: Q07DX002 (ip), vehicle: other
  T/C: 71 % of control

## O=c1ccc2ccccc2o1
dose: 50.0 mg/kg/injection, schedule: Q07DX002 (ip), vehicle: Klucel (hydroxypropylcellulose) (HPC)
  T/C: 115 % of control
[1]
  T/C: 118 % of control
[2]
  T/C: 118 % of control

## C=C1C(C)C2C(Cc3ccccc3)NC(=O)C23C(OC(C)=O)/C=C/C(C)(O)CC(C)C/C=C/C3C1O (stereo not drawn)
dose: 0.75 mg/kg/injection, schedule: Q07DX002 (ip), vehicle: Klucel (hydroxypropylcellulose) (HPC)
  T/C: 86 % of control
dose: 1.5 mg/kg/injection, schedule: Q07DX002 (ip), vehicle: Klucel (hydroxypropylcellulose) (HPC)
  T/C: 115 % of control
dose: 3.0 mg/kg/injection, schedule: Q07DX002 (ip), vehicle: Klucel (hydroxypropylcellulose) (HPC)
  T/C: 77 % of control
dose: 6.0 mg/kg/injection, schedule: Q07DX002 (ip), vehicle: Klucel (hydroxypropylcellulose) (HPC)
  T/C: 100 % of control
dose: 12.0 mg/kg/injection, schedule: Q07DX002 (ip), vehicle: Klucel (hydroxypropylcellulose) (HPC)
  T/C: 95 % of control
dose: 24.0 mg/kg/injection, schedule: Q07DX002 (ip), vehicle: Klucel (hydroxypropylcellulose) (HPC)
  T/C: 90 % of control

## [N-]=[N+]=CC(=O)CCC(=O)C=[N+]=[N-]
dose: 50.0 mg/kg/injection, schedule: Q07DX003 (ip), vehicle: Klucel (hydroxypropylcellulose) (HPC)
  T/C: 39 % of control
dose: 100.0 mg/kg/injection, schedule: Q07DX003 (ip), vehicle: Klucel (hydroxypropylcellulose) (HPC)
  T/C: 45 % of control
dose: 200.0 mg/kg/injection, schedule: Q07DX003 (ip), vehicle: Klucel (hydroxypropylcellulose) (HPC)
  T/C: 50 % of control
dose: 400.0 mg/kg/injection, schedule: Q07DX003 (ip), vehicle: Klucel (hydroxypropylcellulose) (HPC)
  T/C: 19 % of control

## CC[n+]1ccc(Nc2ccc(NC(=O)c3ccc(C(=O)Nc4ccc(Nc5cc[n+](CC)c(N)n5)cc4)cc3)cc2)nc1N
dose: 6.25 mg/kg/injection, schedule: Q07DX003 (ip), vehicle: saline
  T/C: 89 % of control
dose: 6.25 mg/kg/injection, schedule: Q07DX003 (ip), vehicle: suspension in saline
  T/C: 70 % of control
dose: 12.5 mg/kg/injection, schedule: Q07DX003 (ip), vehicle: saline
  T/C: 55 % of control
dose: 25.0 mg/kg/injection, schedule: Q07DX003 (ip), vehicle: saline
  T/C: 67 % of control
dose: 25.0 mg/kg/injection, schedule: Q07DX003 (ip), vehicle: suspension in saline
  T/C: 123 % of control
dose: 50.0 mg/kg/injection, schedule: Q07DX003 (ip), vehicle: saline
  T/C: 67 % of control
dose: 50.0 mg/kg/injection, schedule: Q07DX003 (ip), vehicle: suspension in saline
  T/C: 54 % of control
dose: 100.0 mg/kg/injection, schedule: Q07DX003 (ip), vehicle: saline
  T/C: 56 % of control
dose: 100.0 mg/kg/injection, schedule: Q07DX003 (ip), vehicle: suspension in saline
  T/C: 36 % of control

## Cc1cc(NCCCCCCNc2cc(C)nc3cc(N(C)C)ccc23)c2ccc(N(C)C)cc2n1
dose: 6.0 mg/kg/injection, schedule: Q07DX002 (ip), vehicle: distilled water + Tween-80 + alcohol
  T/C: 107 % of control
dose: 12.5 mg/kg/injection, schedule: Q07DX002 (ip), vehicle: distilled water + Tween-80 + alcohol
  T/C: 99 % of control
dose: 25.0 mg/kg/injection, schedule: Q07DX002 (ip), vehicle: distilled water + Tween-80 + alcohol
  T/C: 95 % of control
dose: 50.0 mg/kg/injection, schedule: Q07DX002 (ip), vehicle: distilled water + Tween-80 + alcohol
  T/C: 105 % of control
dose: 100.0 mg/kg/injection, schedule: Q07DX002 (ip), vehicle: distilled water + Tween-80 + alcohol
  T/C: 90 % of control

## COc1ccc(C(=O)c2no[n+]([O-])c2C(=O)c2ccc(OC)cc2)cc1
[3]
  T/C: 107 % of control
[4]
  T/C: 99 % of control and 106 % of control

## O=C1NC(=O)/C(=C/C=C/c2ccccc2)S1
dose: 1.81 mg/kg/injection, schedule: Q07DX002 (ip), vehicle: saline with Tween-80
  T/C: 70 % of control
dose: 3.62 mg/kg/injection, schedule: Q07DX002 (ip), vehicle: saline with Tween-80
  T/C: 198 % of control
dose: 7.25 mg/kg/injection, schedule: Q07DX002 (ip), vehicle: saline with Tween-80
  T/C: 84 % of control
[3]
  T/C: 117 % of control and 100 % of control
dose: 14.5 mg/kg/injection, schedule: Q07DX002 (ip), vehicle: saline with Tween-80
  T/C: 85 % of control
dose: 25.0 mg/kg/injection, schedule: Q07DX002 (ip), vehicle: saline with Tween-80
  T/C: 65 % of control and 80 % of control
dose: 29.0 mg/kg/injection, schedule: Q07DX002 (ip), vehicle: saline with Tween-80
  T/C: 69 % of control
dose: 58.0 mg/kg/injection, schedule: Q07DX002 (ip), vehicle: saline with Tween-80
  T/C: 78 % of control
[5]
  T/C: 175 % of control

## Cc1ncc([N+](=O)[O-])n1CCO
dose: 37.5 mg/kg/injection, schedule: Q01DX005 (ip), vehicle: Klucel (hydroxypropylcellulose) (HPC)
  T/C: 78 % of control
dose: 37.5 mg/kg/injection, schedule: Q04DX003 (ip), vehicle: Klucel (hydroxypropylcellulose) (HPC)
  T/C: 88 % of control
dose: 75.0 mg/kg/injection, schedule: Q01DX005 (ip), vehicle: Klucel (hydroxypropylcellulose) (HPC)
  T/C: 61 % of control
dose: 75.0 mg/kg/injection, schedule: Q04DX003 (ip), vehicle: Klucel (hydroxypropylcellulose) (HPC)
  T/C: 121 % of control
dose: 75.0 mg/kg/injection, schedule: Q07DX002 (ip), vehicle: Klucel (hydroxypropylcellulose) (HPC)
  T/C: 74 % of control
dose: 150.0 mg/kg/injection, schedule: Q01DX005 (ip), vehicle: Klucel (hydroxypropylcellulose) (HPC)
  T/C: 83 % of control
dose: 150.0 mg/kg/injection, schedule: Q04DX003 (ip), vehicle: Klucel (hydroxypropylcellulose) (HPC)
  T/C: 80 % of control
dose: 150.0 mg/kg/injection, schedule: Q07DX002 (ip), vehicle: Klucel (hydroxypropylcellulose) (HPC)
  T/C: 156 % of control
dose: 300.0 mg/kg/injection, schedule: Q01DX005 (ip), vehicle: Klucel (hydroxypropylcellulose) (HPC)
  T/C: 93 % of control
dose: 300.0 mg/kg/injection, schedule: Q04DX003 (ip), vehicle: Klucel (hydroxypropylcellulose) (HPC)
  T/C: 75 % of control
dose: 300.0 mg/kg/injection, schedule: Q07DX002 (ip), vehicle: Klucel (hydroxypropylcellulose) (HPC)
  T/C: 103 % of control
dose: 600.0 mg/kg/injection, schedule: Q01DX005 (ip), vehicle: Klucel (hydroxypropylcellulose) (HPC)
  T/C: 105 % of control
dose: 600.0 mg/kg/injection, schedule: Q07DX002 (ip), vehicle: Klucel (hydroxypropylcellulose) (HPC)
  T/C: 99 % of control

## CCOC(=O)CNC(=O)Sc1ccc(C(C)(C)C)cc1
dose: 25.0 mg/kg/injection, schedule: Q07DX002 (ip), vehicle: Klucel (hydroxypropylcellulose) (HPC)
  T/C: 117 % of control and 97 % of control
[1]
  T/C: 111 % of control and 95 % of control
[2]
  T/C: 78 % of control and 81 % of control
dose: 400.0 mg/kg/injection, schedule: Q07DX002 (ip), vehicle: Klucel (hydroxypropylcellulose) (HPC)
  T/C: 78 % of control and 102 % of control
dose: 800.0 mg/kg/injection, schedule: Q07DX002 (ip), vehicle: Klucel (hydroxypropylcellulose) (HPC)
  T/C: 54 % of control

## CC(=O)OC1COC(NC(=O)N(CCCl)N=O)C(OC(C)=O)C1OC(C)=O (stereo not drawn)
dose: 0.75 mg/kg/injection, schedule: Q07DX002 (ip), vehicle: saline with Tween-80
  T/C: 92 % of control
dose: 1.5 mg/kg/injection, schedule: Q07DX002 (ip), vehicle: saline with Tween-80
  T/C: 84 % of control
dose: 3.0 mg/kg/injection, schedule: Q07DX002 (ip), vehicle: saline with Tween-80
  T/C: 66 % of control
dose: 6.0 mg/kg/injection, schedule: Q07DX002 (ip), vehicle: saline with Tween-80
  T/C: 92 % of control
dose: 12.0 mg/kg/injection, schedule: Q07DX002 (ip), vehicle: saline with Tween-80
  T/C: 44 % of control

## COC1=CC(=O)C(OC)=C(OC)C1=O
dose: 6.25 mg/kg/injection, schedule: Q07DX002 (ip), vehicle: saline with Tween-80
  T/C: 115 % of control and 92 % of control
[3]
  T/C: 160 % of control and 185 % of control
[4]
  T/C: 62 % of control and 65 % of control
[5]
  T/C: 152 % of control
dose: 200.0 mg/kg/injection, schedule: Q07DX002 (ip), vehicle: saline with Tween-80
  T/C: 189 % of control
